Results on eight compounds are retold here after publication PMC7253382, “Trypanocidal and leishmanicidal activity of six limonoids” (Journal of Natural Medicines, 2020).

Converted amounts (≈) assume the structure as drawn. Read-outs that look alike come from different tables or passages of the source.

Data set [1] concerns promastigotes of Leishmania major (strain MHOM/IL/81/Friedlin). In words: In vitro toxicity assay (resazurin), L. major promastigotes. As to conditions: 72 h; for GI50: read-out: L. major GI50; for MIC: read-out: L. major MIC. Format: cell-based. The protocol: (§1) Bloodstream forms of Trypanosoma brucei (clone 427-221a) and human myeloid leukaemia HL-60 cells were maintained in Baltz medium supplemented with 16.7% heat-inactivated bovine serum in a humidified atmosphere containing 5% CO2 at 37 °C. Promastigotes of Leishmania major (strain MHOM/IL/81/Friedlin [16]) were cultured in Schneider’s insect medium supplemented with 10% heat-inactivated foetal bovine serum in a humidified atmosphere containing 5% CO2 at 27 °C.
(§2) Toxicity assays were carried out as previously described with some modifications. In brief, cells were seeded in 96-well plates in a final volume of 200 μL of appropriate medium containing various concentrations of test compounds (tenfold dilution from 100 µM to 1 nM) and 1% DMSO. Wells just containing medium and 1% DMSO served as controls. The initial cell densities were 1 × 10^4/mL for T. brucei bloodstream forms, 2.5 × 10^5/mL for L. major promastigotes, and 5 × 10^4/mL for HL-60 cells. After 24 h incubation, 20 µL of a 0.5 mM resazurin solution prepared in PBS was added and the cells were incubated for a further 48 h. Thereafter, the absorbance of wells was read on a BioTek ELx808 microplate reader using a test wavelength of 570 nm and a reference wavelength of 630 nm. The 50% growth inhibition (GI50) value, i.e., the concentration of a compound necessary to reduce the growth rate of cells by 50% compared to the control, was determined by linear interpolation. The minimum inhibitory concentration (MIC) values, i.e. the concentration of a compound at which all trypanosomes and human cells were killed, was determined microscopically.
(In general: Resazurin is reduced to fluorescent resorufin, in cell work by metabolically active cells.)

Data set [2] has as its system intracellular L. major amastigotes in J774 macrophages. Kind of data set: Intra-macrophages amastigote assay. Format: cell-based, Leishmania major. The following applies: for Killing of intracellular amastigotes: 72 h. The protocol: The intra-macrophages amastigote assay was performed as previously described with some modification. In brief, 1 mL of J774 cells (7 × 10^4) suspended in RPMI supplemented with 10% foetal bovine serum were pipetted into wells of a 24 well plate containing sterile glass coverslips. Subsequently, cells were incubated overnight at 37 °C and 5% CO2 in a humidified incubator. The next day, metacyclic L. major promastigotes (MOI 20:1) were added and the plates incubated for 24 h at 34 °C and 5% CO2 in a humidified incubator. After 24 h incubation, cells were washed 4 times with PBS to remove parasites that had not invaded any macrophage. Then, cells were incubated with compound 1 at the following concentrations: 10, 2.5, 1.25, 0.625 and 0.1 µM. Amphotericin B (0.1 µM) was used as a positive control and no drug treatment as a negative control. After 72 h of drug incubation, cells were gently washed 4 times with PBS and fixed with 4% paraformaldehyde for 30 min. Thereafter, cells were washed once with water and stained with Giemsa for 40 min. Cells on coverslips were then destained using the acetone-xylene protocol as follows: first, pure acetone; second, pure acetone; third, acetone/xylene 9:1; forth, acetone/xylene 7:3; fifth, acetone/xylene 3:7; sixth, pure xylene. Finally, coverslips were mounted on slides with Entellan new mounting medium. Infection index (parasites/cell) were determined by counting approximately 300 cells per coverslips using an Olympus BX50 microscope with a 100 × N.A. 1.35 oil immersion objective.
Fig. 2 Effect of compound 1 on intracellular L. major amastigotes. After infection of J774 macrophages with metacyclic promastigotes of L. major, cells were treated with compound 1 or amphotericin B (AM) or with DMSO alone (DMSO) 24 h post infection. After 72 h incubation, coverslips with cells were washed with PBS, fixed with paraformaldehyde and stained with Giemsa. Subsequently, cells were destained and coverslips mounted, and the infection index determined. Mean values ± SD of three independent experiments run in triplicate are shown

A short description of data set [3]: In vitro toxicity assay (resazurin), HL-60 cells. The data set is classed as cell-based, human. As to conditions: human. The method, then: as §1, §2
In data set [4] the test system is human myeloid leukaemia HL-60 cells. Kind of data set: In vitro toxicity assay (resazurin), HL-60 cells. Format: cell-based. The following applies: 72 h; for GI50: 50% growth inhibition, resazurin. The protocol: as §1, §2
Data set [5] deals with immortalised human embryonic kidney cell line HEK239T. The arrangement: method as in PMID 28917086. The following applies: cited from earlier work.
Data set [6] concerns bloodstream forms of Trypanosoma brucei (clone 427-221a). Kind of data set: In vitro toxicity assay (resazurin), T. brucei bloodstream forms. As to conditions: for GI50: read-out: T. brucei GI50; for MIC: read-out: T. brucei MIC. The data set is classed as cell-based. The method, then: as §1, §2
Data set [7] deals with Axenic grown amastigotes of L. donovani. More on the design: method as in PMID 17253841. The following applies: cited from earlier work.
Data set [8] concerns bloodstream forms of T. brucei rhodesiense. The arrangement: method as in PMID 17253841. As to conditions: cited from earlier work.
Setting [9] is: Leishmania major, promastigotes, 50% growth inhibition, resazurin.
Where [10] appears, read: Leishmania major, promastigotes, determined microscopically.
Where [11] appears, read: Trypanosoma brucei, 72 h, bloodstream forms, 50% growth inhibition, resazurin, 72 h.
[12] abbreviates: Trypanosoma brucei, bloodstream forms, concentration at which all cells were killed, determined microscopically, 72 h.
[13] abbreviates: HL-60 cells (human myeloid leukaemia), cytotoxicity, 50% growth inhibition, resazurin, 72 h, read-out: HL-60 cells GI50.
Setting [14] is: cytotoxicity, determined microscopically.
Where [15] appears, read: cytotoxicity, 50% growth inhibition, resazurin, 72 h, read-out: HL-60 cells GI50.

As usually defined, the GI50 is the concentration giving 50% growth inhibition. One may read the MIC as the smallest concentration in the dilution series that meets the test's criterion for growth inhibition. On to `C[C@@H]1[C@H](O)[C@@H](C)/C=C/C=C/C=C/C=C/C=C/C=C/C=C/[C@H](O[C@@H]2O[C@H](C)[C@@H](O)[C@H](N)[C@@H]2O)C[C@@H]2O[C@](O)(C[C@@H](O)C[C@@H](O)[C@H](O)CC[C@@H](O)C[C@@H](O)CC(=O)O[C@H]1C)C[C@H](O)[C@H]2C(=O)O` [Amphotericin B, reference compound], for which the GI50 in data set [1] (setting [9]) worked out at 0.036 ± 0.001 µM. In addition, the MIC in data set [1] (setting [10]) turned out to be 0.1 µM (≈ 0.0924 µg/mL). In data set [2] (at 0.1 μM, positive control), the “Killing of intracellular amastigotes” value is listed as “completely destroy”. In data set [3] (HL-60 cells GI50), this compound registered a GI50 at 72 h of 50.7 ± 9.3 µM. The “HL-60 cells MIC” value in data set [4] (human) was greater than 100 µM.

For the compound `CC1(C)C(=O)C=C[C@]2(C)C3C(=O)C[C@@]4(C)[C@H](c5ccoc5)OC(=O)[C@H]5O[C@]54[C@]3(C)CC[C@@H]12` (stereo partly shown) [Compound 1, kotschyienone A], in data set [5], the “cytotoxicity for HEK239T” value was greater than 200 µg/mL. The GI50 in data set [1] (setting [9]) is 2 to 3 µM; in data set [1] (promastigotes, 50% growth inhibition, resazurin) it was 2.86 ± 0.89 µM; in data set [2] (Leishmania major, J774, same value as 1.51 μM in mass units) it was 0.66 µg/mL (≈ 1.51 µM); in data set [6] (setting [11]) it was 2 to 3 µM; in data set [6] (Trypanosoma brucei, bloodstream forms, same value as 2.48 μM in mass units) it was 1.09 µg/mL; in data set [6] (bloodstream forms, 50% growth inhibition, resazurin, 72 h) it was 2.48 ± 0.12 µM. For the same compound, the GI50 in data set [4] (cytotoxicity) is 31.5 ± 3.7 µM. For the same compound, the MIC in data set [1] (setting [10]) and in data set [6] (setting [12]) was 10 µM (≈ 4.39 µg/mL) each time. The “Killing of intracellular amastigotes” value in data set [2] (at 10 μM) is recorded as “killed completely”. Besides, in data set [2] (intracellular amastigotes in J774 macrophages, 72 h drug incubation, infection index), the “ED50 (50% effective dose), reduction of parasite burden of infected macrophages” value was found to be 1.51 µM. In addition, the GI50 at 72 h in data set [3] (setting [13]) was 31.5 to 46.2 µM. In addition, in data set [4] (setting [14]), the “HL-60 cells MIC” value stood at 100 µM.

As to `CC1(C)C(=O)C=C[C@]2(C)C3C(=O)C[C@@]4(C)[C@H](c5ccoc5)OC(=O)[C@H]5O[C@]54[C@]3(C)[C@H](O)C[C@@H]12` (stereo partly shown) [Compound 2, kotschyienone B], the GI50 is 14.9 ± 5.9 µM in data set [1] (setting [9]) and 14.2 ± 2.9 µM in data set [6] (setting [11]). Moreover, the MIC in data set [1] (setting [10]) and in data set [6] (setting [12]) was 100 µM (≈ 45.5 µg/mL) throughout. In addition, the GI50 at 72 h in data set [3] (setting [13]) is greater than 100 µM. For the same compound, the “HL-60 cells MIC” value in data set [4] (setting [14]) was greater than 100 µM.

Regarding `CC1(C)C(=O)C=C[C@]2(C)C3CC[C@@]4(C)[C@H](c5ccoc5)OC(=O)[C@H]5O[C@]54[C@]3(C)[C@H](O)C[C@@H]12` (stereo partly shown) [Compound 3, 7-deacetylgedunin], the GI50 in data set [1] (Leishmania major) was 11.6 ± 1.6 µM; in data set [7], roughly 1 µM; in data set [6] (Trypanosoma brucei, 72 h), 14.5 ± 3.2 µM; in data set [4] (cytotoxicity), 46.2 ± 6.7 µM; in data set [8], 3.4 µM. In addition, the MIC in data set [1] (Leishmania major) was 100 µM (≈ 44.1 µg/mL); in data set [6] (Trypanosoma brucei, 72 h) it was 100 µM (≈ 44.1 µg/mL). Further, the GI50 at 72 h in data set [3] (setting [15]) lay in the range of 31.5 to 46.2 µM. The “HL-60 cells MIC” value in data set [4] (setting [14]) is 100 µM.

As for `CC1(C)C(=O)C=C[C@]2(C)C3CC[C@@]4(C)[C@H](c5ccoc5)OC(=O)[C@H]5O[C@]54[C@]3(C)C(=O)C[C@@H]12` (stereo partly shown) [Compound 4, 7-deacetyl-7-oxogedunin], the GI50 in data set [1] (Leishmania major) was 7.63 ± 2.78 µM; in data set [7] it was roughly 1 µM; in data set [6] (Trypanosoma brucei, 72 h), 3.18 ± 0.48 µM; in data set [8] it was 3.4 µM. In addition, the MIC is greater than 100 µM in data set [1] (Leishmania major) and greater than 100 µM in data set [6] (Trypanosoma brucei, 72 h). Further, the GI50 at 72 h in data set [3] (setting [15]) was greater than 100 µM. Further, the “HL-60 cells MIC” value in data set [4] (setting [14]) was greater than 100 µM.

Regarding `C=C1[C@@H]([C@@]2(C)C=CC(=O)C(C)(C)[C@@H]2CC(=O)OC)CC[C@@]2(C)[C@H](c3ccoc3)OC(=O)[C@H]3O[C@]132` [Compound 5, andirobin], the GI50 was greater than 100 µM in data set [1] (setting [9]) and 11.5 ± 6.3 µM in data set [6] (setting [11]). In addition, the MIC in data set [1] (setting [10]) and in data set [6] (setting [12]) was greater than 100 µM throughout. Besides, in data set [3] (setting [13]), the GI50 at 72 h was greater than 100 µM. Besides, the “HL-60 cells MIC” value in data set [4] (setting [14]) is greater than 100 µM.

For the compound `C=C1[C@@H]2CC[C@@]3(C)[C@H](c4ccoc4)OC(=O)C[C@]13O[C@H]1CC(=O)C(C)(C)[C@H](CC(=O)OC)[C@]12C` [Compound 6, methyl angolensate], in data set [1] (Leishmania major), the GI50 is greater than 100 µM and the MIC was greater than 100 µM. Also, in data set [6] (Trypanosoma brucei, 72 h), the GI50 was 6.04 ± 2.25 µM and the MIC is greater than 100 µM. The 50% growth inhibitory concentration (GI50) at 72 h in data set [3] (setting [15]) was greater than 100 µM. Besides, the “HL-60 cells MIC” value in data set [4] (setting [14]) was greater than 100 µM.

Consider `Cc1ccc(C(=O)Nc2ccc(S(=O)(=O)O)c3cc(S(=O)(=O)O)cc(S(=O)(=O)O)c23)cc1NC(=O)c1cccc(NC(=O)Nc2cccc(C(=O)Nc3cc(C(=O)Nc4ccc(S(=O)(=O)O)c5cc(S(=O)(=O)O)cc(S(=O)(=O)O)c45)ccc3C)c2)c1` [Suramin, reference compound], for which, in data set [6] (setting [11]), the GI50 turned out to be 0.042 ± 0.004 µM. Besides, in data set [6] (setting [12]), the MIC was 1 µM (≈ 1.3 µg/mL). This compound also displayed a GI50 at 72 h in data set [3] (HL-60 cells GI50) greater than 100 µM. Further, the “HL-60 cells MIC” value in data set [4] (human) was greater than 100 µM.
